Test results published in EPA's ToxRefDB 2.

Assays:
[1] = tested on: dog; details: Chronic toxicity; beagle; Oral; Feed; dose end: 52 week; group: systemic; systemic / clinical chemistry / creatinine / creatinine + systemic / clinical chemistry / urea nitrogen / urea + systemic / pathology …
[2] = tested on: rat; details: Subchronic oral toxicity in rodents, sprague dawley, Gavage/Intubation, dose end: 28 day, group: systemic
[3] = tested on: rat; details: Subchronic oral toxicity in rodents, sprague dawley, Feed, dose end: 28 day, group: systemic
[4] = tested on: rabbit; details: Prenatal developmental toxicity study, other, Oral, Gavage/Intubation, dose end: 19 GD
[5] = tested on: rat; details: Subchronic oral toxicity in rodents, sprague dawley, Feed, dose end: 3 month, group: systemic
[6] = tested on: rat; details: Subchronic dermal toxicity, sprague dawley, Topical, dose end: 28 day, group: systemic, systemic / clinical chemistry / alkaline phosphatase (alp/alk) / alkaline phosphatase (alp/alk) + systemic / clinical chemistry / glucose / …
[7] = tested on: mouse; details: Subchronic oral toxicity in rodents, other, Feed, dose end: 13 week, group: systemic
[8] = tested on: rat; details: Combined chronic toxicity/carcinogenicity; sprague dawley; Oral; Feed; dose end: 24 month; group: systemic; systemic / pathology microscopic / kidney / infiltration cellular + systemic / pathology microscopic / kidney / nephropathy
[9] = tested on: dog; details: Subchronic oral toxicity in nonrodent, beagle, Feed, dose end: 13 week, group: systemic, systemic / clinical chemistry / alanine aminotransferase (alt/sgpt) / alanine aminotransferase (alt/sgpt) + systemic / clinical chemistry / …
[10] = tested on: mouse; details: Other (NonGuideline or Guideline Not Listed), Oral, Feed, dose end: 59 day, group: cannot be grouped
[11] = tested on: rabbit; details: Prenatal developmental toxicity study, himalayan, Oral, Gavage/Intubation, dose end: 19 GD
[12] = tested on: mouse; details: Carcinogenicity, other, Oral, Feed, dose end: 78 week, group: systemic
[13] = tested on: rat; details: Prenatal developmental toxicity study, other, Oral, Gavage/Intubation, dose end: 15 GD
[14] = tested on: dog; details: Subchronic oral toxicity in nonrodent, beagle, Feed, dose end: 28 day, group: systemic, systemic / in life observation / food consumption / food consumption + systemic / in life observation / body weight / body weight + systemic…
[15] = tested on: rat; details: Prenatal developmental toxicity study, other, Oral, Gavage/Intubation, dose end: 15 GD; remark: listed apart in the source
[16] = systemic / pathology microscopic / kidney / dilatation + systemic / pathology microscopic / adrenal gland / fatty change + systemic / in …
[17] = systemic / pathology microscopic / kidney / [other] + systemic / pathology microscopic / kidney / dilatation + systemic / pathology …
[18] = systemic / pathology microscopic / kidney / proliferation
[19] = group: developmental, systemic / in life observation / body weight / fetal weight
[20] = group: maternal, systemic / in life observation / body weight / body weight gain + systemic / in life observation / food consumption / food consumption
[21] = group: maternal, systemic / in life observation / body weight / body weight gain + systemic / in life observation / food consumption / food consumption + …
[22] = systemic / pathology microscopic / kidney / hyalinization + systemic / pathology microscopic / kidney / lesion(s) (nos)
[23] = systemic / pathology microscopic / kidney / hyalinization + systemic / pathology microscopic / kidney / lesion(s) (nos) + systemic / …
[24] = systemic / pathology microscopic / liver / hypertrophy
[25] = systemic / pathology microscopic / liver / hypertrophy + systemic / hematology / anemia / anemia - nos + systemic / hematology / erythrocyte…
[26] = systemic / pathology microscopic / liver / proliferation + systemic / organ weight / liver / absolute + systemic / organ weight / liver / …
[27] = group: developmental, developmental / developmental malformation / bone / fused + developmental / developmental malformation / bone / misshapen + developmental / …
[28] = group: maternal, systemic / in life observation / food consumption / food consumption + reproductive / reproductive performance / postimplantation loss / …
[29] = systemic / pathology microscopic / liver / hypertrophy + systemic / pathology microscopic / liver / infiltration cellular + systemic / …
[30] = group: maternal, systemic / in life observation / body weight / body weight gain + systemic / in life observation / body weight / body weight + systemic / in…
[31] = group: developmental, developmental / developmental malformation / bone / incomplete ossification + developmental / developmental malformation / bone / irregular …
[32] = group: maternal, systemic / in life observation / body weight / body weight + systemic / in life observation / body weight / body weight gain + systemic / in…

## CN1COCN(Cc2cnc(Cl)s2)/C1=N/[N+](=O)[O-] [Thiamethoxam]
[1]
  LEL: 21 mg/kg/day
  LOAEL: 21 mg/kg/day
  NEL: 4.05 mg/kg/day
  NOAEL: 4.05 mg/kg/day
[2]; systemic / pathology microscopic / kidney / dilatation + systemic / pathology microscopic / adrenal gland / fatty change
  LOAEL: 300 mg/kg/day
[2]; [16]
  NEL: 100 mg/kg/day
  NOAEL: 100 mg/kg/day
[2]; systemic / pathology microscopic / kidney / dilatation + systemic / pathology microscopic / adrenal gland / fatty change + systemic / …
  LEL: 300 mg/kg/day
[3]; [17]
  LOAEL: 81.7 mg/kg/day
  NOAEL: 8.04 mg/kg/day
[3]; [18]
  LEL: 8.04 mg/kg/day
  NEL: < 8.04 mg/kg/day
[4]; [19]
  LEL: 150 mg/kg/day
  LOAEL: 150 mg/kg/day
  NEL: 50 mg/kg/day
  NOAEL: 50 mg/kg/day
[4]; [20]
  LEL: 50 mg/kg/day
  LOAEL: 50 mg/kg/day
[4]; [21]
  NEL: 10 mg/kg/day
  NOAEL: 10 mg/kg/day
[5]; [22]
  LEL: 17.6 mg/kg/day
  LOAEL: 17.6 mg/kg/day
[5]; [23]
  NEL: 1.74 mg/kg/day
  NOAEL: 1.74 mg/kg/day
[6]
  LEL: 250 mg/kg/day
  LOAEL: 250 mg/kg/day
  NEL: 60 mg/kg/day
  NOAEL: 60 mg/kg/day
[7]; [24]
  LEL: 14.3 mg/kg/day
  LOAEL: 14.3 mg/kg/day
[7]; [25]
  NEL: 1.41 mg/kg/day
  NOAEL: 1.41 mg/kg/day
[8]
  LEL: 63 mg/kg/day
  LOAEL: 63 mg/kg/day
  NEL: 21 mg/kg/day
  NOAEL: 21 mg/kg/day
[9]
  LEL: 32 mg/kg/day
  LOAEL: 32 mg/kg/day
  NEL: 8.23 mg/kg/day
  NOAEL: 8.23 mg/kg/day
[10]; systemic / pathology microscopic / liver / proliferation
  LEL: 72 mg/kg/day
[10]; [26]
  LOAEL: > 386 mg/kg/day
  NEL: 16 mg/kg/day
  NOAEL: ≥ 386 mg/kg/day
[11]; [27]
  LEL: 150 mg/kg/day
  LOAEL: 150 mg/kg/day
  NEL: 50 mg/kg/day
  NOAEL: 50 mg/kg/day
[11]; group: maternal, systemic / in life observation / food consumption / food consumption
  LEL: 50 mg/kg/day
[11]; [28]
  LOAEL: 150 mg/kg/day
  NEL: 15 mg/kg/day
  NOAEL: 50 mg/kg/day
[12]; systemic / organ weight / liver / relative to body weight + systemic / pathology microscopic / liver / hypertrophy + systemic / pathology …
  NEL: 479 mg/kg/day
[12]; [29]
  LOAEL: 63.8 mg/kg/day
  NOAEL: 2.63 mg/kg/day
[13]; [19]
  LEL: 1000 mg/kg/day
  LOAEL: 1000 mg/kg/day
  NEL: 500 mg/kg/day
  NOAEL: 500 mg/kg/day
[13]; group: maternal, systemic / in life observation / body weight / body weight gain
  LOAEL: 500 mg/kg/day
[13]; [30]
  LEL: 500 mg/kg/day
  NEL: 100 mg/kg/day
  NOAEL: 100 mg/kg/day
[14]
  LEL: 43 mg/kg/day
  LOAEL: 43 mg/kg/day
  NEL: 32.6 mg/kg/day
  NOAEL: 32.6 mg/kg/day
[15]; [31]
  LOAEL: 750 mg/kg/day
  NEL: 30 mg/kg/day
  NOAEL: 200 mg/kg/day
[15]; group: developmental, developmental / developmental malformation / bone / incomplete ossification + developmental / developmental malformation / bone / short …
  LEL: 200 mg/kg/day
[15]; [32]
  LEL: 200 mg/kg/day
  LOAEL: 200 mg/kg/day
  NEL: 30 mg/kg/day
  NOAEL: 30 mg/kg/day
